The subject of the test is BDF1 mice, P388 leukemia ip, median survival T/C. Description: NCI In Vivo Anticancer Drug Screen. Data for tumor model P388 Leukemia (intraperitoneal) in B6D2F1 (BDF1) mice. As to conditions: endpoint: median survival time, higher = longer survival. A digest of the protocol: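 Compound-treated tumour-bearing mice were compared with vehicle-treated controls. Survival was recorded, and the value is the treated-group measurement divided by the control-group measurement (T/C).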

Setting [1] is: dose: 50.0 mg/kg/injection, schedule: Q04DX003 (ip), vehicle: saline.
Setting [2] is: dose: 25.0 mg/kg/injection, schedule: Q04DX003 (ip), vehicle: saline.
[3] abbreviates: dose: 50.0 mg/kg/injection, schedule: Q01DX009 (ip), vehicle: saline.
Setting [4] is: dose: 100.0 mg/kg/injection, schedule: Q01DX009 (ip), vehicle: saline.
The mark [5] stands for this setting: dose: 100.0 mg/kg/injection, schedule: Q04DX003 (ip), vehicle: saline.
The mark [6] stands for this setting: dose: 200.0 mg/kg/injection, schedule: Q01DX009 (ip), vehicle: saline.
The mark [7] stands for this setting: dose: 50.0 mg/kg/injection, schedule: Q01DX009 (ip), vehicle: saline with Tween-80.
Setting [8] is: dose: 50.0 mg/kg/injection, schedule: Q04DX003 (ip), vehicle: saline with Tween-80.
The mark [9] stands for this setting: dose: 100.0 mg/kg/injection, schedule: Q01DX009 (ip), vehicle: saline with Tween-80.
Setting [10] is: dose: 100.0 mg/kg/injection, schedule: Q04DX003 (ip), vehicle: saline with Tween-80.
The mark [11] stands for this setting: dose: 200.0 mg/kg/injection, schedule: Q01DX009 (ip), vehicle: saline with Tween-80.
The mark [12] stands for this setting: dose: 200.0 mg/kg/injection, schedule: Q04DX003 (ip), vehicle: saline with Tween-80.
Where [13] appears, read: dose: 400.0 mg/kg/injection, schedule: Q04DX003 (ip), vehicle: saline with Tween-80.
[14] abbreviates: dose: 25.0 mg/kg/injection, schedule: Q01DX009 (ip), vehicle: saline.

Molecules are shown by their SMILES. “And” between values parts separate entries of the source, which are not always exact repeats. Equal entries are not always repeated. Toxic doses and inconclusive results are not listed.

For `CC[C@](O)(C(=O)O)c1cc2n(c(=O)c1CO)Cc1cc3ccccc3nc1-2`, the T/C (dose: 1.0 mg/kg/injection, schedule: Q01DX009 (ip), vehicle: water) was 112 % of control; the T/C (dose: 2.0 mg/kg/injection, schedule: Q01DX009 (ip), vehicle: saline) is 156 % of control; the T/C (dose: 2.0 mg/kg/injection, schedule: Q01DX009 (ip), vehicle: water) was 150 % of control; the T/C (dose: 3.13 mg/kg/injection, schedule: Q04DX002 (ip), vehicle: saline) was 116 % of control; the T/C (dose: 4.0 mg/kg/injection, schedule: Q01DX009 (ip), vehicle: saline) is 171 % of control; the T/C (dose: 12.5 mg/kg/injection, schedule: Q04DX002 (ip), vehicle: saline) was 161 % of control. The T/C is 192 % of control (dose: 12.5 mg/kg/injection, schedule: Q04DX009 (ip), vehicle: saline); 175 % of control (dose: 14.4 mg/kg/injection, schedule: Q04DX003 (ip), vehicle: saline); 175 % of control (dose: 18.0 mg/kg/injection, schedule: Q04DX003 (ip), vehicle: saline); 214 % of control (dose: 24.0 mg/kg/injection, schedule: Q04DX003 (ip), vehicle: saline); 199 % of control (dose: 25.0 mg/kg/injection, schedule: Q04DX002 (ip), vehicle: saline); 192 % of control (dose: 25.0 mg/kg/injection, schedule: Q04DX009 (ip), vehicle: saline). Moreover, the T/C (dose: 30.0 mg/kg/injection, schedule: Q04DX003 (ip), vehicle: saline) was 201 % of control; the T/C (dose: 33.0 mg/kg/injection, schedule: Q04DX003 (ip), vehicle: saline) was 168 % of control; the T/C (dose: 40.0 mg/kg/injection, schedule: Q04DX003 (ip), vehicle: saline) was 224 % of control; the T/C (dose: 40.0 mg/kg/injection, schedule: Q04DX003 (ip), vehicle: water) is 104 % of control; the T/C under setting [1] is 172 % of control; the T/C (dose: 66.7 mg/kg/injection, schedule: Q04DX003 (ip), vehicle: saline) is 90 % of control. In addition, the T/C (dose: 75.0 mg/kg/injection, schedule: Q04DX003 (ip), vehicle: saline) was 200 % of control; the T/C (dose: 100.0 mg/kg/injection, schedule: Q01DX001 (ip), vehicle: saline) was 172 % of control; the T/C (dose: 150.0 mg/kg/injection, schedule: Q01DX001 (ip), vehicle: saline) was 43 % of control; the T/C (dose: 175.0 mg/kg/injection, schedule: Q01DX001 (ip), vehicle: saline) was 90 % of control.

Regarding `CSC(=S)NNC(=O)c1ccc([N+](=O)[O-])cc1`, the T/C is, setting by setting: (dose: 3.13 mg/kg/injection, schedule: Q04DX003 (ip), vehicle: saline sonified) 90 % of control; (dose: 6.25 mg/kg/injection, schedule: Q04DX003 (ip), vehicle: saline sonified) 100 % of control; (dose: 12.5 mg/kg/injection, schedule: Q04DX003 (ip), vehicle: saline sonified) 95 % of control.

For `O=C(O)CS(=O)(=O)c1ccccc1`, the T/C by setting is: under setting [2], 109 % of control; (dose: 50.0 mg/kg/injection, schedule: Q01DX001 (ip), vehicle: other) 95 % of control; under setting [3], 108 % of control; under setting [1], 109 % of control; (dose: 100.0 mg/kg/injection, schedule: Q01DX001 (ip), vehicle: other) 100 % of control; under setting [4], 120 % of control. In addition, the T/C by setting is: under setting [5], 100 % of control; under setting [6], 108 % of control.

Turning to `CC(C)(C)C#C[P+](C#CC(C)(C)C)(Cc1ccccc1)c1ccccc1`, the T/C reads like this: (dose: 12.5 mg/kg/injection, schedule: Q01DX009 (ip), vehicle: saline) 96 % of control; (dose: 12.5 mg/kg/injection, schedule: Q04DX003 (ip), vehicle: saline) 123 % of control; under setting [2], 123 % of control; under setting [1], 107 % of control.

For `CC(=O)C1CCC2C3CCC4=CC(=O)CC4(C)C3CCC12C` (stereo not drawn), the T/C by setting is: under setting [7], 95 % of control; under setting [8], 104 % of control; under setting [9], 90 % of control and 100 % of control; under setting [10], 95 % of control and 104 % of control; under setting [11], 90 % of control and 95 % of control; under setting [12], 90 % of control and 95 % of control. Further, the T/C was 86 % of control (dose: 400.0 mg/kg/injection, schedule: Q01DX009 (ip), vehicle: saline with Tween-80) and 90 % of control under setting [13].

As for `Sc1ccc(Nc2c3ccccc3nc3ccccc23)cc1`, the T/C was 102 % of control and 108 % of control under setting [7]; 100 % of control and 118 % of control under setting [9].

As to `Cc1ncc(CSc2ccccc2N)c(CO)c1O`, the T/C reads like this: under setting [7], 91 % of control; under setting [9], 92 % of control; under setting [11], 94 % of control.

For the molecule `C/C(=C/c1c(C)[nH]c(=O)[nH]c1=O)C(=O)O`, the T/C under setting [14] was 89 % of control; the T/C under setting [3] is 89 % of control; the T/C under setting [4] was 96 % of control; the T/C under setting [5] is 101 % of control; the T/C under setting [6] was 105 % of control; the T/C (dose: 200.0 mg/kg/injection, schedule: Q04DX003 (ip), vehicle: saline) is 91 % of control. For the same molecule, for the setting “dose: 400.0 mg/kg/injection, schedule: Q04DX003 (ip), vehicle: saline”, the T/C was 87 % of control.

As to `O=[N+]([O-])c1ccc(N2CCN(CCO)CC2)c2nonc12`, the T/C is, setting by setting: (dose: 15.0 mg/kg/injection, schedule: Q01DX009 (ip), vehicle: saline with Tween-80) 100 % of control; (dose: 25.0 mg/kg/injection, schedule: Q04DX003 (ip), vehicle: saline with Tween-80) 97 % of control; (dose: 30.0 mg/kg/injection, schedule: Q01DX009 (ip), vehicle: saline with Tween-80) 97 % of control; under setting [8], 96 % of control.

With `CCCCCCCCC(C(=O)c1ccccc1)C(O)(C(F)(F)F)C(F)(F)F` (stereo not drawn), the T/C is, setting by setting: under setting [7], 90 % of control; under setting [9], 95 % of control; under setting [10], 95 % of control; under setting [11], 109 % of control; under setting [12], 115 % of control; under setting [13], 115 % of control.

As for `CN1C(=O)C(C)(C)C(=O)C1(C)C`, the T/C is, setting by setting: (dose: 12.5 mg/kg/injection, schedule: Q01DX001 (ip), vehicle: saline) 100 % of control; (dose: 25.0 mg/kg/injection, schedule: Q01DX001 (ip), vehicle: saline) 100 % of control; (dose: 50.0 mg/kg/injection, schedule: Q01DX001 (ip), vehicle: saline) 100 % of control.

As for `CN(C)c1ccc(C(O)C(N)=O)cc1` (stereo not drawn), the T/C is, setting by setting: (dose: 6.25 mg/kg/injection, schedule: Q01DX009 (ip), vehicle: saline) 90 % of control; under setting [14], 90 % of control.

As for `CCSC1(SCC)C(=O)OC2=C(CCCC2)C1N1CCOCC1` (stereo not drawn), the T/C runs as follows: under setting [7], 99 % of control; under setting [9], 99 % of control; under setting [11], 94 % of control.

As to `Cc1cccc(N2CCN(CCC#N)CC2)c1`, the T/C runs as follows: (dose: 25.0 mg/kg/injection, schedule: Q01DX009 (ip), vehicle: saline with Tween-80) 91 % of control; under setting [7], 95 % of control; under setting [9], 91 % of control.

For `CCN(CC)c1ccc(NC(=O)Nc2ccccc2OC)cc1`, the T/C under setting [10] was 95 % of control, the T/C under setting [12] was 100 % of control and the T/C under setting [13] is 100 % of control.

Regarding `COC(=O)CCCc1c[nH]c2ccccc12`, the T/C runs as follows: (dose: 100.0 mg/kg/injection, schedule: Q01DX009 (ip), vehicle: other) 103 % of control; (dose: 200.0 mg/kg/injection, schedule: Q01DX009 (ip), vehicle: other) 94 % of control; (dose: 400.0 mg/kg/injection, schedule: Q01DX009 (ip), vehicle: other) 86 % of control.

Regarding `O=C(Cc1ccc([N+](=O)[O-])cc1)c1ccccc1`, the T/C is, setting by setting: (dose: 100.0 mg/kg/injection, schedule: Q04DX003 (ip), vehicle: Klucel (hydroxypropylcellulose) (HPC)) 112 % of control; (dose: 200.0 mg/kg/injection, schedule: Q04DX003 (ip), vehicle: Klucel (hydroxypropylcellulose) (HPC)) 104 % of control; (dose: 400.0 mg/kg/injection, schedule: Q04DX003 (ip), vehicle: Klucel (hydroxypropylcellulose) (HPC)) 91 % of control.

Turning to `CSC1=NN(c2ccccc2)CN(c2ccccc2)N1C`, the T/C is, setting by setting: under setting [7], 95 % of control; under setting [9], 88 % of control; under setting [11], 108 % of control.

As for `CS(=O)CC(O)(c1ccccc1)c1ccccn1` (stereo not drawn), the T/C is 103 % of control under setting [7], 110 % of control under setting [9] and 100 % of control under setting [11].

Source of the values: PubChem BioAssay AID328 (DTP/NCI, 2004).
